Source: patent publication US11753445B2, “Therapeutic peptides” (COHBAR, INC., priority 2016, dated 2023)
Peptide text beside a SMILES is read from it.

Assays:
[1] = test system: 3T3-L1 Adipocytes; assay: Free fatty acid levels in cultured mouse 3T3-L1 adipocytes, forskolin stimulated (Example 3); type: cell-based; conditions: test peptides 25 μM; forskolin 1 μM
Procedure: Mouse 3T3-L1 cells were seeded at 1,000-20,000 cells per well on 96-well, 48-well, or 24-well plates in Pre-adipocyte Medium (Zen-Bio, Durham, N.C.) and grown to confluence at 37° C. in a humidified atmosphere of 5% CO2/95% air. Two days after confluence, cells were placed in Adipocyte Differentiation Medium (Zen-Bio, Durham, N.C.) and cultured for three additional days at 37° C. in a humidified atmosphere of 5% CO2/95% air. The culture media was then replaced with Adipocyte Maintenance Medium (Zen-Bio) and the cells were maintained for an additional 9-14 days at 37° C. in a humidified atmosphere of 5% CO2/95% air with partial medium replacement every other day. Following 12-17 days of differentiation, test peptides were added at a final concentration of 25 μM and incubated for 18-20 hours in Adipocyte Maintenance Medium at 37° C. in a humidified atmosphere of 5% CO2/95%. After 18-20 hours, the media was exchanged with fresh Adipocyte Maintenance Medium containing test peptides and incubated for 1 h at 37° C. in a humidified atmosphere of 5% CO2/95%. After 1 h media was exchanged with Assay Buffer (Zen-Bio) containing forskolin (1 μM) (added to all samples except untreated controls) and test peptides. Cells were incubated for a further 3 hours at 37° C. in a humidified atmosphere of 5% CO2/95%. Free fatty acid concentrations in the media were determined using a Free Fatty Acid Assay Kit (Zen-Bio) according to the manufacturer's instructions using a plate reader (540 nm). Absorbance values were corrected for untreated background and expressed relative to forskolin treated cells. Treatment with forskolin (1 μM) alone was used as the free fatty acid level stimulatory control. The relative standard deviation of the forskolin control was <10%. […] Free fatty acid levels for insulin (100 nM) treatment were <9% of the forskolin control value.

[2] = test system: Human Primary Adipocytes; assay: Free fatty acid levels in cultured human primary adipocytes, forskolin stimulated (Example 5); type: cell-based; conditions: test peptides 25 μM; forskolin 1 μM
Procedure: Human primary adipocytes were seeded at 5,000-100,000 cells per well on 96-well, 48-well, or 24-well plate in Pre-adipocyte Medium (Zen-Bio, Durham, N.C.) and grown to confluence at 37° C. in a humidified atmosphere of 5% CO2/95% air. Two days after confluence, cells were placed in Adipocyte Differentiation Medium (Zen-Bio, Durham, N.C.) and cultured for three additional days at 37° C. in a humidified atmosphere of 5% CO2/95% air. The culture media was then replaced with Adipocyte Maintenance Medium (Zen-Bio) and the cells were maintained for an additional 11-21 days at 37° C. in a humidified atmosphere of 5% CO2/95% air with partial medium replacement every other day. Following 14-24 days of differentiation, test peptides were added at a final concentration of 25 μM and incubated for 18-20 hours in Adipocyte Maintenance Medium at 37° C. in a humidified atmosphere of 5% CO2/95%. After 18-20 hours, the media was exchanged with fresh Adipocyte Maintenance Medium containing test peptides and incubated for 1 h at 37° C. in a humidified atmosphere of 5% CO2/95%. After 1 h media was exchanged with Assay Buffer (Zen-Bio) containing forskolin (1 μM) (added to all samples except untreated controls) and test peptides. Cells were incubated for a further 3 hours at 37° C. in a humidified atmosphere of 5% CO2/95%. Free fatty acid concentrations in the media were determined using a Free Fatty Acid Assay Kit (Zen-Bio) according to the manufacturer's instructions using a plate reader (540 nm). Absorbance values were corrected for untreated background and expressed relative to forskolin treated cells. Treatment with forskolin (1 μM) alone was used as the free fatty acid level stimulatory control. The relative standard deviation of the forskolin control was <20%. […] Free fatty acid levels for insulin (100 nM) treatment were <8% of the forskolin control value.

[3] = test system: 3T3-L1 Adipocytes; assay: Free fatty acid levels in cultured mouse 3T3-L1 adipocytes, isoproterenol stimulated (Example 2); type: cell-based; conditions: test peptides 25 μM; isoproterenol 1 nM
Procedure, shortened: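 3T3-L1 cells differentiated 12–17 days into adipocytes, then exposed to test peptides at 25 μM final for 18–20 h, then 1 h, then 3 h with isoproterenol (1 nM) at 37 °C. Free fatty acids in the medium measured colorimetrically at 540 nm, corrected for untreated background and expressed relative to isoproterenol-only cells.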

[4] = Stability in mouse plasma, peptides 10 uM (Example 15); type: in vitro ADME; conditions: mouse plasma 37° C., peptide 10 uM; for remaining at 0.25 h, 10 uM / remaining at 0.5 h, 10 uM / remaining at 1 h, 10 uM / remaining at 2 h, 10 uM / remaining at 3 h, 10 uM: pooled mouse plasma; for remaining at 0.25 h, 10 uM: 15 min, read-out: % Remaining at Each Time Point: 15 min; for remaining at 0.5 h, 10 uM: 30 min, read-out: % Remaining at Each Time Point: 30 min; for remaining at 1 h, 10 uM: 60 min, read-out: % Remaining at Each Time Point: 60 min; for remaining at 2 h, 10 uM: 120 min, read-out: % Remaining at Each Time Point: 120 min; for remaining at 3 h, 10 uM: 180 min, read-out: % Remaining at Each Time Point: 180 min
Procedure: (§1) Peptides (10 uM) were incubated in pooled mouse plasma at 37° C. and samples were removed and immediately analyzed for the concentration of intact peptide by LC/MS/MS over the course of 3 hours. The percent of peptide remaining in plasma at each time point was calculated relative to the initial peak area (Table 13).

[5] = test system: Diet Induced Obese (DIO) mice; assay: Body weight, blood glucose and fat mass in Diet Induced Obese mice, 10 days (Example 6); type: in vivo, Male C57BL/6 mice; conditions: male DIO mice; 10 days twice daily intraperitoneal 15 mg/kg; N = 8; mean
Procedure: Animals were randomized to treatment groups based on blood glucose levels and body weight. The peptides of the invention were administered to two groups of male DIG mice once or twice daily by subcutaneous or intraperitoneal injection at a dose of 15 mg/kg/dose for 10 days (N=8 animals per treatment group). An additional group of male DIG mice (n=8) received vehicle (water or saline) alone. Body weight, blood glucose levels and food intake were monitored. Body mass distribution (fat vs lean) was determined by quantitative whole body NMR prior to dosing and at the end of dosing.

[6] = Stability in mouse plasma, peptides 100 uM (Example 14); type: in vitro ADME; conditions: mouse plasma 37° C., peptide 100 uM; for remaining at 0.25 h, 100 uM / remaining at 0.5 h, 100 uM / remaining at 1 h, 100 uM / remaining at 2 h, 100 uM / remaining at 3 h, 100 uM: pooled mouse plasma; for remaining at 0.25 h, 100 uM: 15 min, read-out: % Remaining at Each Time Point: 15 min; for remaining at 0.5 h, 100 uM: 30 min, read-out: % Remaining at Each Time Point: 30 min; for remaining at 1 h, 100 uM: 60 min, read-out: % Remaining at Each Time Point: 60 min; for remaining at 2 h, 100 uM: 120 min, read-out: % Remaining at Each Time Point: 120 min; for remaining at 3 h, 100 uM: 180 min, read-out: % Remaining at Each Time Point: 180 min
Procedure: as §1, with “(100” for “(10”, “12).” for “13).”

Row | Molecule | Free Fatty Acid Levels in 3T3-L1 Adipocytes Expressed as a Percent of Forskolin Control: Percent of Control Value [1] [%] | Free Fatty Acid Levels in Human Primary Adipocytes Expressed as a Percent of Forskolin Control: Percent of Control Value [2] [%] | Free Fatty Acid Levels in 3T3-L1 Adipocytes Expressed as a Percent of Isoproterenol Control: Percent of Control Value [3] [%] | % Remaining at Each Time Point: 0 min [4] [%] | remaining at 0.25 h, 10 uM [4] [%] | remaining at 0.5 h, 10 uM [4] [%] | remaining at 1 h, 10 uM [4] [%] | remaining at 2 h, 10 uM [4] [%] | remaining at 3 h, 10 uM [4] [%] | Difference from Vehicle Control: Decrease from Baseline in Blood Glucose [5] [mg/dL] | Difference from Vehicle Control: Decrease from Baseline in Body Weight (%) [5] [%] | Difference from Vehicle Control: Decrease from Baseline in Fat Mass [5] [g] | % Remaining at Each Time Point: 0 min [6] [%] | remaining at 0.25 h, 100 uM [6] [%] | remaining at 0.5 h, 100 uM [6] [%] | remaining at 1 h, 100 uM [6] [%] | remaining at 2 h, 100 uM [6] [%] | remaining at 3 h, 100 uM [6] [%]
1 | H-MRWQEMGYIFYPRN-OH [compound 203] | 54.5 | 75.2 | 52.9 |  |  |  |  |  |  |  |  |  |  |  |  |  |  | 
2 | H-MRWQEMGYIFYPRQLR-OH [compound 214] | 50.2 | 89.9 | 52.3 |  |  |  |  |  |  |  |  |  |  |  |  |  |  | 
3 | H-RWQEMGYIFYPR-OH [compound 205] | 64.5 | 94.5 | 71.5 |  |  |  |  |  |  |  |  |  |  |  |  |  |  | 
4 | H-RWQEMNYIAEPR-OH [compound 251] |  |  | 83.7 | 100 | 70.6 | 47.5 | 44.4 | 38.1 | 30.2 | -34.3 | −0.55 | 0.02 |  |  |  |  |  | 
5 | CC[C@H](C)[C@H](NC(=O)[C@H](Cc1ccc(O)cc1)NC(=O)CNC(=O)[C@H](CCSC)NC(=O)[C@H](CCC(=O)O)NC(=O)[C@H](CCC(N)=O)NC(=O)[C@H](Cc1c[nH]c2ccccc12)NC(=O)[C@H](CCCNC(=N)N)NC(=O)[C@@H](N)CCSC)C(=O)N[C@@H](Cc1ccccc1)C(=O)N[C@@H](Cc1ccc(O)cc1)C(=O)N1CCC[C@H]1C(=O)N[C@@H](CCCNC(=N)N)C(=O)N[C@H](C)C(=O)N[C@@H](CC(C)C)C(=O)N[C@@H](CCCNC(=N)N)C(=O)O [compound 149] (HELM PEPTIDE1{M.R.W.Q.E.M.G.Y.I.F.Y.P.R.[dA].L.R}$$$$V2.0) |  |  | 38.6 | 100 | 59.3 | 36.1 | 11.1 | 0.98 | 0.28 | -11.4 | −5.22 | -2.13 |  |  |  |  |  | 
6 | H-RWQEMGYIFYPRNLR-OH [compound 216] | 50.1 | 110 | 36.3 |  |  |  |  |  |  |  |  |  |  |  |  |  |  | 
7 | H-MRWQEMGYIFYPRALR-OH [compound 19] |  | 113 | 66.0 |  |  |  |  |  |  | -14.5 | −3.27 | -2.34 | 100 | 18.8 | 18.2 | 8.52 | 1.82 | 0.22
8 | H-MRWQEMGYIFYPAKLR-OH [compound 18] |  | 101 |  |  |  |  |  |  |  | 1.52 | −0.80 | -0.65 | 100 | 30.8 | 24 | 19.4 | 9.02 | 4.53
9 | H-MRWQEAGYIFYPRKLR-OH [compound 11] |  |  | 78.8 |  |  |  |  |  |  | -27.6 | −8.81 | -5.85 | 100 | 18.3 | 17.5 | 11.5 | 5.25 | 2.38
10 | H-MRWQEMGYIFYPRQ-OH [compound 204] | 57.3 | 94.3 | 38.8 |  |  |  |  |  |  |  |  |  |  |  |  |  |  | 
11 | H-MRWQEMNYIFYPRALR-OH [compound 218] | 43.6 | 75.4 | 41.0 |  |  |  |  |  |  |  |  |  |  |  |  |  |  | 
12 | H-MRWQEEGYIFYPRKLR-OH [compound 172] |  |  | 54.2 | 100 | 59.4 | 33.6 | 6.43 | 0.44 | 0 | -31.5 | −2.48 | -0.77 |  |  |  |  |  | 
